Assay results: ChEMBL document CHEMBL4138197, “Design, synthesis and pharmacological evaluation of N-(5-chloro-2,4-dihydroxybenzoyl)-(R)-N-arylmethyl-1,2,3,4-tetrahydro-3-isoquinolinecarboxamides as potent Hsp90 inhibitors” (Eur J Med Chem, 2018)

Key:
A549 = test: Antiproliferative activity against human A549 cells after 72 hrs by SRB assay; format: functional, cell-based; conditions: A549, 72 h
MDA-MB-231 = test: Antiproliferative activity against human MDA-MB-231 cells after 72 hrs by SRB assay; format: functional, cell-based; conditions: MDA-MB-231, 72 h

## O=C(NCc1ccccn1)[C@H]1Cc2ccccc2CN1C(=O)c1cc(Cl)c(O)cc1O
A549
  IC50: 0.89 µM
MDA-MB-231
  IC50: 0.63 µM

## O=C(NCc1ccccc1Cl)[C@H]1Cc2ccccc2CN1C(=O)c1cc(Cl)c(O)cc1O
A549
  IC50: 1.46 µM
MDA-MB-231
  IC50: 1.71 µM

## COc1ccc(CNC(=O)[C@H]2Cc3ccccc3CN2C(=O)c2cc(Cl)c(O)cc2O)cc1
A549
  IC50: 1.06 µM
MDA-MB-231
  IC50: 0.9 µM

## O=C(NCc1cccc([N+](=O)[O-])c1)[C@H]1Cc2ccccc2CN1C(=O)c1cc(Cl)c(O)cc1O
A549
  IC50: 0.65 µM
MDA-MB-231
  IC50: 0.8 µM

## COc1ccc(CNC(=O)[C@H]2Cc3ccccc3CN2C(=O)c2cc(Cl)c(O)cc2O)c(OC)c1
A549
  IC50: 1.41 µM
MDA-MB-231
  IC50: 1.16 µM

## O=C(NCc1ccco1)[C@H]1Cc2ccccc2CN1C(=O)c1cc(Cl)c(O)cc1O
A549
  IC50: 0.89 µM
MDA-MB-231
  IC50: 0.5 µM

## O=C(NCc1cccc(Cl)c1)[C@H]1Cc2ccccc2CN1C(=O)c1cc(Cl)c(O)cc1O
A549
  IC50: 1.81 µM
MDA-MB-231
  IC50: 1.96 µM

## N#Cc1ccc(CNC(=O)[C@H]2Cc3ccccc3CN2C(=O)c2cc(Cl)c(O)cc2O)cc1
A549
  IC50: 0.35 µM
MDA-MB-231
  IC50: 0.35 µM

## O=C(NCc1cccc2ccccc12)[C@H]1Cc2ccccc2CN1C(=O)c1cc(Cl)c(O)cc1O
A549
  IC50: 2.76 µM
MDA-MB-231
  IC50: 2.41 µM

## O=C(NCc1cccnc1)[C@H]1Cc2ccccc2CN1C(=O)c1cc(Cl)c(O)cc1O
A549
  IC50: 1.51 µM
MDA-MB-231
  IC50: 0.82 µM

## Cc1ccccc1CNC(=O)[C@H]1Cc2ccccc2CN1C(=O)c1cc(Cl)c(O)cc1O
A549
  IC50: 0.65 µM
MDA-MB-231
  IC50: 1.46 µM

## COc1ccc(CNC(=O)[C@H]2Cc3ccccc3CN2C(=O)c2cc(Cl)c(O)cc2O)cc1OC
A549
  IC50: 1.71 µM
MDA-MB-231
  IC50: 1.66 µM

## COc1cccc(CNC(=O)[C@H]2Cc3ccccc3CN2C(=O)c2cc(Cl)c(O)cc2O)c1
A549
  IC50: 1.56 µM
MDA-MB-231
  IC50: 1.81 µM

## COC1=C2C[C@@H](C)C[C@H](OC)[C@H](O)[C@@H](C)/C=C(\C)[C@H](OC(N)=O)[C@@H](OC)/C=C\C=C(/C)C(=O)NC(=CC1=O)C2=O [GELDANAMYCIN]
A549
  IC50: 0.1 µM
MDA-MB-231
  IC50: 0.06 µM

## NS(=O)(=O)c1ccc(CNC(=O)[C@H]2Cc3ccccc3CN2C(=O)c2cc(Cl)c(O)cc2O)cc1
A549
  IC50: > 10 µM
MDA-MB-231
  IC50: > 10 µM

## N#Cc1ccc(CNC(=O)[C@H]2Cc3ccccc3CN2C(=O)c2cc(Cl)c(O)cc2O)cn1
A549
  IC50: 2.73 µM
MDA-MB-231
  IC50: 2.08 µM

## Cc1cccc(CNC(=O)[C@H]2Cc3ccccc3CN2C(=O)c2cc(Cl)c(O)cc2O)c1
A549
  IC50: 0.96 µM
MDA-MB-231
  IC50: 1.76 µM

## O=C(NCc1ccc([N+](=O)[O-])cc1)[C@H]1Cc2ccccc2CN1C(=O)c1cc(Cl)c(O)cc1O
A549
  IC50: 0.54 µM
MDA-MB-231
  IC50: 0.4 µM

## COc1cc(CNC(=O)[C@H]2Cc3ccccc3CN2C(=O)c2cc(Cl)c(O)cc2O)ccc1O
A549
  IC50: 2.61 µM
MDA-MB-231
  IC50: 2.16 µM

## O=C(NCc1ccccc1)[C@H]1Cc2ccccc2CN1C(=O)c1cc(Cl)c(O)cc1O
A549
  IC50: 1.67 µM
MDA-MB-231
  IC50: 1.12 µM

## O=C(NCc1cccc(Cl)c1Cl)[C@H]1Cc2ccccc2CN1C(=O)c1cc(Cl)c(O)cc1O
A549
  IC50: 1.11 µM
MDA-MB-231
  IC50: 2.11 µM

## O=C(NCc1ccc(Cl)c(Cl)c1)[C@H]1Cc2ccccc2CN1C(=O)c1cc(Cl)c(O)cc1O
A549
  IC50: 1.46 µM
MDA-MB-231
  IC50: 1.61 µM

## O=C(NCc1ccc2c(c1)CCO2)[C@H]1Cc2ccccc2CN1C(=O)c1cc(Cl)c(O)cc1O
A549
  IC50: 1.06 µM
MDA-MB-231
  IC50: 0.9 µM

## N#Cc1ccc(CNC(=O)[C@H]2Cc3ccccc3CN2C(=O)c2cc(Cl)c(O)cc2O)nc1
A549
  IC50: 0.62 µM
MDA-MB-231
  IC50: 0.53 µM

## CS(=O)(=O)c1cccc(CNC(=O)[C@H]2Cc3ccccc3CN2C(=O)c2cc(Cl)c(O)cc2O)c1
A549
  IC50: > 10 µM
MDA-MB-231
  IC50: 3.87 µM

## Cc1ccc(CNC(=O)[C@H]2Cc3ccccc3CN2C(=O)c2cc(Cl)c(O)cc2O)cc1
A549
  IC50: 0.53 µM
MDA-MB-231
  IC50: 0.6 µM

## O=C(NCc1ccc2c(c1)OCO2)[C@H]1Cc2ccccc2CN1C(=O)c1cc(Cl)c(O)cc1O
A549
  IC50: 0.65 µM
MDA-MB-231
  IC50: 0.7 µM

## O=C(NCc1ccc(Cl)cc1Cl)[C@H]1Cc2ccccc2CN1C(=O)c1cc(Cl)c(O)cc1O
A549
  IC50: 0.65 µM
MDA-MB-231
  IC50: 0.95 µM

## COc1cc(CNC(=O)[C@H]2Cc3ccccc3CN2C(=O)c2cc(Cl)c(O)cc2O)cc(OC)c1OC
A549
  IC50: 2.66 µM
MDA-MB-231
  IC50: 2.21 µM

## N#Cc1cccc(CNC(=O)[C@H]2Cc3ccccc3CN2C(=O)c2cc(Cl)c(O)cc2O)c1
A549
  IC50: 0.5 µM
MDA-MB-231
  IC50: 0.65 µM

## O=C(NCc1ccc(Cl)cc1)[C@H]1Cc2ccccc2CN1C(=O)c1cc(Cl)c(O)cc1O
A549
  IC50: 0.75 µM
MDA-MB-231
  IC50: 0.78 µM

## COc1ccccc1CNC(=O)[C@H]1Cc2ccccc2CN1C(=O)c1cc(Cl)c(O)cc1O
A549
  IC50: 1.16 µM
MDA-MB-231
  IC50: 0.95 µM

## O=C(NCc1ccc(OC(F)(F)F)cc1)[C@H]1Cc2ccccc2CN1C(=O)c1cc(Cl)c(O)cc1O
A549
  IC50: 2.16 µM
MDA-MB-231
  IC50: 2.26 µM

## CS(=O)(=O)c1ccc(CNC(=O)[C@H]2Cc3ccccc3CN2C(=O)c2cc(Cl)c(O)cc2O)cc1
A549
  IC50: 2.66 µM
MDA-MB-231
  IC50: 0.95 µM

## CN(C)c1ccc(CNC(=O)[C@H]2Cc3ccccc3CN2C(=O)c2cc(Cl)c(O)cc2O)cc1
A549
  IC50: 0.45 µM
MDA-MB-231
  IC50: 0.4 µM
